What was measured:
[1] = McConathy and Goodman, Cancer Metastasis Rev. 2008; cited from earlier work
[2] = system: DU145 xenografts; test: PET/CT-imaging in DU145-tumor bearing mice; format: in vivo; settings: microPET/CT; for renal clearance / background activity: 50-70min after injection; for tumor-contrast: 50-70min after injection of - 10 MBq radiotracer; for background activity: except for kidney and bladder uptake
Procedure: Example 9 was imaged on a microPET/ CT (Inveon, Siemens) in DU145 tumor-bearing mice 50-70min after injection of - 10 MBq radiotracer 45.
Example 10 was imaged on a microPET/ CT (Inveon, Siemens) in DU145 tumor-bearing mice 50-70min after injection of - 10 MBq radiotracer 46.

[3] = system: DU145 prostate cancer cells; test: Cell-uptake experiment: uptake of [14C] ACPC in the presence of excess heterocyclic amino acid; format: cell-based; settings: 5 µM 14C-ACPC, 60 minutes at 37°C, uptake buffer PBS with 0.1% BSA, Figure 10
Procedure: To assess the difference between heterocyclic amino acids and other non-natural amino acids, we studied the uptake of the cyclic amino acid [14C] ACPC into DU145 prostate cancer cells in the presence of excess amount of an heterocyclic amino acid (compound 15). 25000 DU145 cells were seeded per cavity of a 48 well incubation plate (Becton Dickinson; Cat. 353078) and incubated for 2 days in D-MEM / F-12 (1:1) with GlutaMAx (Invitrogen; Cat. 31331) medium supplemented with 10% FCS in an incubator (37°C, 5%CO2).

[4] = system: primary prostate cancer tumors; settings: prostate cancer patients, cited from earlier work; for uptake into primary prostate cancer tumors: Schuster et al., abstract at SNM 2010

renal clearance [2] | background activity [2] | Compound | tumor-contrast [2] | uptake into primary prostate cancer tumors [4] | background in other organs [4] | renal elimination / excretion into the bladder [4] | other results
 |  | NC1([11C](=O)O)CCC1 [[11C]ACBC, 1-aminocyclobutane-1-[11C]carboxylic acid] |  |  |  |  | metabolism [1]: not metabolized
rapid renal clearance | very low background activity | NC1(C(=O)O)COCC1[18F] (racemic) [tracer 45, (3SR,4SR)-3-Amino-4-[^18F]fluorotetrahydrofuran-3-carboxylic acid] | High tumor-contrast |  |  |  | 
 |  | N[C@]1(C(=O)O)COC[C@H]1F (racemic) [compound 15, (3SR,4SR)-3-Amino-4-fluorotetrahydrofuran-3-carboxylic acid] |  |  |  |  | [14C] ACPC uptake into DU145 prostate cancer cells in the presence of excess amount of heterocyclic amino acid [3]: able to block [14C] ACPC uptake
 |  | N[C@]1(C(=O)O)C[C@@H](F)C1 [3-FACBC, anti-1-amino-3-[18F]fluorocyclobutyl-1-carboxylic acid] |  | showed uptake into primary prostate cancer tumors | high background in other organs such as liver and heart | delayed renal elimination | 
 |  | NC1(C(=O)O)CCCC1[18F] (centres unmarked) [2-FACPC] |  | showed uptake into primary prostate cancer tumors | high background signals for instance in the blood pool | excreted into the bladder more rapidly | 
rapid renal clearance | very low background activity | N[C@@]1(C(=O)O)CCOC[C@@H]1[18F] (racemic) [tracer 46, (3RS,4RS)-4-Amino-3-[^18F]fluoro-3,4,5,6-tetrahydro-2H-pyran-4-carboxylic acid] | High tumor-contrast |  |  |  | 
